# According to publication PMC7834738 (Molecular Therapy, 2020):
# Entries after “also recorded” stand apart in the source; their conditions may differ.
# Tests used:
# [1] = system: SARS-CoV-2 (USA_WA1/2020); format: cell-based
# [2] = system: SARS-CoV-2; conditions: single agent; cited from earlier work
# [3] = system: Vero E6 cells; format: cell-based
# [4] = system: SARS-CoV-2; conditions: cited from earlier work
# [5] = healthy adults; cited from earlier work
# [6] = system: COVID-19; conditions: 392 participants, outpatient setting; cited from earlier work
smiles,measurement,setting,value
CCN(CC)Cc1cc(Nc2ccnc3cc(Cl)ccc23)ccc1O [Amodiaquine],antagonism against GS-441524,[1],not
same,concentrations that significantly antagonized against remdesivir,[1],0.625 to 5 µM
same,interaction with nitazoxanide in CPE assay,[1],notable synergism
same,interaction with remdesivir at high concentrations,[1],synergize
same,interaction with remdesivir in CPE assay,[1],strong antagonistic effect; also recorded: antagonize
same,fold less potent in Calu-3 (TMPRSS2+) than in Vero E6,[2],> 10 fold
N#C[C@@]1(c2ccc3c(N)ncnn23)O[C@H](CO)[C@@H](O)[C@H]1O [GS-441524],CPE,[1],≈ 0
CCOC(=O)c1c(CSc2ccccc2)n(C)c2cc(Br)c(O)c(CN(C)C)c12 [Arbidol],concentrations showing antagonism against remdesivir,[1],123 to 370 nM
same,concentrations synergizing with remdesivir,[1],3 to 10 µM
same,interaction with remdesivir in CPE assay,[1],antagonize
CCOC(=O)C1=C[C@@H](OC(CC)CC)[C@H](NC(C)=O)[C@@H](N)C1 [Oseltamivir phosphate],antagonism with remdesivir,[1],no antagonism
CC(=O)Oc1ccccc1C(=O)Nc1ncc([N+](=O)[O-])s1 [Nitazoxanide],nitazoxanide concentrations with complete rescue of CPE,[1],0.625 to 5 µM
same,cytotoxicity,[3],not cytotoxic
same,toxicity to Vero E6 cells,[3],~20%
same,IC50,[4],~2000 nM
same,tolerability,[5],well tolerated
same,efficacy with respect to 7-day viral load and symptom resolution,[6],modest efficacy
CCC(CC)COC(=O)[C@H](C)N[P@](=O)(OC[C@H]1O[C@@](C#N)(c2ccc3c(N)ncnn23)[C@H](O)[C@@H]1O)Oc1ccccc1 [Remdesivir],CPE,[1],≈ 0
same,interaction with nitazoxanide in CPE assay,[1],notable synergism
OC(c1cc(C(F)(F)F)nc2c(C(F)(F)F)cccc12)C1CCCCN1 (centres unmarked) [Mefloquine],antagonism against GS-441524,[1],not
same,concentrations that significantly antagonized against remdesivir,[1],0.625 to 1.25 µM
same,interaction with remdesivir at high concentrations,[1],synergize
same,interaction with remdesivir in CPE assay,[1],strong antagonistic effect; also recorded: antagonize
